Measured values as given in ChEMBL document CHEMBL1149019, “Antineoplastic agents, 120. Pancratium littorale” (1986).
Converted amounts (≈) assume the structure as drawn.

Key:
Assay type in all cases: functional
P388 [1] = assay: In vivo cytotoxicity against mouse P388 cells at 12.5 mg/kg relative to control
P388 [2] = assay: In vivo cytotoxicity against mouse P388 cells at 0.75 to 6 mg/kg relative to control; conditions: dose mg/kg 0.75-6
P388 [3] = assay: In vivo antitumor activity against mouse P388 cells assessed as life extension at 0.75 to 12.5 mg/kg; conditions: dose mg/kg 0.75-12.5
M5076 [4] = assay: In vivo antitumor activity against mouse M5076 cells assessed as life extension at 0.38 to 3 mg/kg; conditions: dose mg/kg 0.38-3
M5076 [5] = assay: In vivo cytotoxicity against mouse M5076 cells at 0.38 to 3 mg/kg relative to control; conditions: dose mg/kg 0.38-3
[6] = Cytotoxicity against mouse 9PS cells; conditions: read-out: ED50 (the source's name)
P388 [7] = assay: In vivo cytotoxicity against mouse P388 cells at 25 mg/kg relative to control

Row | Compound | T/C (P388 [1]) | T/C (P388 [2]) | Activity (P388 [3]) [%] | Activity (M5076 [4]) [%] | T/C (M5076 [5]) | EC50 [6] [µg/mL] | T/C (P388 [7])
1 | O=C1N[C@H]2[C@H](O)[C@H](O)[C@@H](O)[C@H](O)[C@@H]2c2cc3c(c(O)c21)OCO3 [PANCRATISTATIN] | 206 | 138 | 38 | 53 | 153 | 0.01 (≈ 0.0307 µM) | 
2 | O=C1N[C@@H]2C(=C[C@H](O)[C@@H](O)[C@H]2O)c2cc3c(cc21)OCO3 | 161 |  |  |  |  | 0.02 (≈ 0.0687 µM) | 161
